One data set has as its target T1, GSK-3β (AA 1-420) (Homo sapiens, UniProt P49841).
T1 construct: GSK-3β (AA 1-420)
Briefly: Ki determination for the inhibition of GSK-3 (coupled enzyme system). Format: biochemical. Particulars: 20 μM ATP, 20 nM GSK-3β, 30° C. On the procedure: Compounds were screened for their ability to inhibit GSK-3β (AA 1-420) activity using a standard coupled enzyme system (Fox et al. (1998) Protein Sci. 7, 2249). Reactions were carried out in a solution containing 100 mM HEPES (pH 7.5), 10 mM MgCl2, 25 mM NaCl, 300 μM NADH, 1 mM DTT and 1.5% DMSO. Final substrate concentrations in the assay were 20 μM ATP (Sigma Chemicals, St Louis, Mo.) and 300 μM peptide (HSSPHQS (PO3H2) EDEEE, American Peptide, Sunnyvale, Calif.). Reactions were carried out at 30° C. and 20 nM GSK-3β. Final concentrations of the components of the coupled enzyme system were 2.5 mM phosphoenolpyruvate, 300 μM NADH, 30 μg/ml pyruvate kinase and 10 μg/ml lactate dehydrogenase.
An assay stock buffer solution was prepared containing all of the reagents listed above with the exception of ATP and the test compound of interest. The assay stock buffer solution (175 μl) was incubated in a 96 well plate with 5 μl of the test compound of interest at final concentrations spanning 0.002 μM to 30 μM at 30° C. for 10 min. […] The reaction was initiated by the addition of 20 μl of ATP (final concentration 20 μM). Rates of reaction were obtained using a Molecular Devices Spectramax plate reader (Sunnyvale, Calif.) over 10 min at 30° C. The Ki values were determined from the rate data as a function of inhibitor concentration.

Experimental findings from patent US6653300B2, “Pyrazole compounds useful as protein kinase inhibitors” (Vertex Pharmaceuticals Incorporated, priority 2000, dated 2003) are described below.

T1 sequence (P49841 whole entry, the tested form may be a part): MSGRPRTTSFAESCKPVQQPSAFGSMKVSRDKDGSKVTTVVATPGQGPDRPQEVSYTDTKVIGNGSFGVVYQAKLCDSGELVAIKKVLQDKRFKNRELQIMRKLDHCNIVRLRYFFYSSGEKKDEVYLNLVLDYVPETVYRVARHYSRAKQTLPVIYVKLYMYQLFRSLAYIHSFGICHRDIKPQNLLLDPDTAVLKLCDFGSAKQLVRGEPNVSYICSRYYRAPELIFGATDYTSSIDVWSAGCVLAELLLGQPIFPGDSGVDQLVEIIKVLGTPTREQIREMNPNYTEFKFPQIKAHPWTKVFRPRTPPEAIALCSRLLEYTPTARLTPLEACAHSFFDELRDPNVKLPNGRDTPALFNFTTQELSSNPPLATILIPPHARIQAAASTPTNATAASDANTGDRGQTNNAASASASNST

`Cc1cc(Nc2nc(Nc3ccccc3)nc3c2CCCCC3)n[nH]1` [IIc-79, (5-Methyl-2H-pyrazol-3-yl)-(2-phenylamino-6,7,8,9-tetrahydro-5H-cycloheptapyrimidin-4-yl)-amine]: the Ki – broadly, a dissociation constant, usually derived from enzyme kinetics or from competition with a known ligand – on GSK-3β (AA 1-420) lay within 100 to 1000 nM.
Consider `CC(=O)Nc1ccc(Sc2nc(Nc3cc(C)n[nH]3)c3cccc(F)c3n2)cc1` [IIa-78, [2-(4-Acetamidophenylsulfanyl)-8-fluoro-quinazolin-4-yl]-(5-methyl-2H-pyrazol-3-yl)-amine], for which the melting point (as a rule, the temperature of the solid-liquid transition) lay in the range of 257 to 259 °C.
In turn, `CC(=O)Nc1ccc(Oc2nc(Nc3cc(C)[nH]n3)cc(-c3ccccc3)n2)cc1` [IIIb-11] came in with an inhibitory constant (Ki) on GSK-3β (AA 1-420) of 100 to 1000 nM.
Still for that read-out and setting: with `Cc1cc(Nc2nc(Nc3ccc(Cl)cc3)nc(C)c2C)n[nH]1` [IIIc-19, [2-(4-Chlorophenyl)amino-5,6-dimethyl-pyrimidin-4-yl]-(5-methyl-2H-pyrazol-3-yl)-amine] the figure was below 100 nM; with `Cc1cc(Nc2cc(N3CCOCC3)nc(SCc3ccccc3)n2)n[nH]1` [IIIa-29, [2-Benzylsulfanyl-6-morpholin-4-yl-pyrimidin-4-yl]-(5-methyl-2H-pyrazol-3-yl)-amine], 100 to 1000 nM.
Regarding `Cc1cc(Nc2nc(Nc3ccc4cn[nH]c4c3)nc3ccccc23)n[nH]1` [IIc-9, [2-(1H-Indazol-6-ylamino)-quinazolin-4-yl]-(5-methyl-2H-pyrazol-3-yl)-amine], the melting point was above 250 °C.
At GSK-3β (AA 1-420), `CCC(=O)Nc1ccc(Sc2nc(CO)cc(Nc3cc(C)n[nH]3)n2)cc1` [IIIa-45, [6-Hydroxymethyl-2-(4-propionylamino-phenyl-sulfanyl)-pyrimidin-4-yl]-(5-methyl-2H-pyrazol-3-yl)-amine] registered an inhibition constant Ki of 1000 to 7000 nM.
The same measure, in the same setting: the same measure for `COCc1cc(Nc2cc(C)[nH]n2)nc(Nc2ccc(Cl)cc2)n1` [IIIc-21, [2-(4-Chlorophenyl)amino-6-methoxymethyl-pyrimidin-4-yl]-(5-methyl-2H-pyrazol-3-yl)-amine]: below 100 nM; for `c1ccc(C2CC2c2nc(Nc3n[nH]c4ccccc34)c3ccccc3n2)cc1` (stereo not drawn) [IId-16, (1H-Indazol-3-yl)-[2-(2-phenyl-cyclopropyl)-quinazolin-4-yl]-amine]: 100 to 1000 nM.
The same measure, in the same setting: the same measure for `Cc1cc(Nc2cc(-c3ccccc3)nc(Nc3ccccc3)n2)n[nH]1` [IIIc-1, (5-Methyl-2H-pyrazol-3-yl)-(6-phenyl-2-phenylamino-pyrimidin-4-yl)-amine]: 100 to 1000 nM; for `N#CCc1ccc(Nc2nc(Nc3n[nH]c4ccccc34)c3ccccc3n2)cc1` [IIc-77, [2-(4-Cyanomethylphenylamino)-quinazolin-4-yl]-(1H-indazol-3-yl)-amine]: below 100 nM; for `c1ccc(Nc2nc(Nc3n[nH]c4ccccc34)c3ccccc3n2)cc1` [IIc-70, (1H-Indazol-3-yl)-(2-phenylamino-quinazolin-4-yl)-amine]: 1000 to 7000 nM.
Still for that read-out and setting: with `Cc1cc(Nc2nc(C3CC3c3ccccc3)nc3ccccc23)n[nH]1` (stereo not drawn) [IId-19, (5-Methyl-1H-pyrazol-3-yl)-[2-(2-phenyl-cyclopropyl)-quinazolin-4-yl]-amine] the figure was below 100 nM; with `Cc1cc(Nc2cc(N3CCN(C)CC3)nc(SCc3cccc(Cl)c3)n2)n[nH]1` [IIIa-30, [2-(3-Chloro-benzylsulfanyl)-6-(4-methylpiperazin-1-yl)-pyrimidin-4-yl]-(5-methyl-2H-pyrazol-3-yl)-amine], 100 to 1000 nM.
At GSK-3β (AA 1-420), `CCC(=O)Nc1ccc(Sc2nc(Nc3cc(C)[nH]n3)cc(-c3ccccc3)n2)cc1` [IIIa-15, (5-Methyl-2H-pyrazol-3-yl)-[6-phenyl-2-(4-propionylamino-phenylsulfanyl)-pyrimidin-4-yl]-amine] showed an inhibition constant Ki of 1000 to 7000 nM.
Same read-out and setting: with `COc1cc(CSc2nc(Nc3cc(C)[nH]n3)cc(N3CCCC3)n2)cc(OC)c1` [IIIa-41, [2-(3,5-Dimethoxy-benzylsulfanyl)-6-pyrrolidin-4-yl-pyrimidin-4-yl]-(5-methyl-2H-pyrazol-3-yl)-amine] the figure was 1000 to 7000 nM.
At GSK-3β (AA 1-420), `Cc1cc(Nc2nc(C(C)(C)c3ccccc3)nc3c2CCCCC3)n[nH]1` [IId-14] yielded a Ki below 100 nM.
Same read-out and setting: the same measure for `COc1ccc(CSc2nc(Nc3cc(C)[nH]n3)cc(N3CCN(C)CC3)n2)cc1` [IIIa-31, [2-(4-methoxy-benzylsulfanyl)-6-(4-methylpiperazin-1-yl)-pyrimidin-4-yl]-(5-methyl-2H-pyrazol-3-yl)-amine]: 100 to 1000 nM; for `Cc1cc(Nc2cc(-c3ccccc3)nc(Oc3ccc(NC(=O)C(C)C)cc3)n2)n[nH]1` [IIIb-13]: below 100 nM; for `COc1cc(-c2cc(Nc3cc(C)[nH]n3)nc(Nc3ccc(S(N)(=O)=O)cc3)n2)cc(OC)c1OC` [IIIc-8, (5-Methyl-2H-pyrazol-3-yl)-[2-(4-sulfamoylphenylamino)-6-(3,4,5-trimethoxyphenyl)-pyrimidin-4-yl]-amine]: 100 to 1000 nM.
Regarding `Cc1cc(Nc2cc(N3CCN(C)CC3)nc(SCc3ccccc3)n2)n[nH]1` [IIIa-28, [2-Benzylsulfanyl-6-(4-methylpiperazin-1-yl)-pyrimidin-4-yl]-(5-methyl-2H-pyrazol-3-yl)-amine], the inhibitory constant (Ki) at GSK-3β (AA 1-420) is 1000 to 7000 nM.
On the same count and under the same terms, with `Cc1cc(Nc2cc(-c3ccco3)[nH]n2)nc(Nc2nc3ccccc3[nH]2)n1` [IIIc-17, [2-(Benzimidazol-2-ylamino)-6-methyl-pyrimidin-4-yl]-[5-(Furan-2-yl)-2H-pyrazol-3-yl]-amine] the figure was 1000 to 7000 nM.
With `COCc1cc(Nc2cc(C)[nH]n2)nc(Nc2nc3ccccc3[nH]2)n1` [IIIc-22, [2-(Benzimidazol-2-ylamino)-6-methoxymethyl-pyrimidin-4-yl]-(5-methyl-2H-pyrazol-3-yl)-amine], the Ki at GSK-3β (AA 1-420) lay within 1000 to 7000 nM.
The compound `COCc1cc(Nc2cc(C)[nH]n2)nc(Nc2ccccc2)n1` [IIIc-23, (6-Methoxymethyl-2-phenylamino-pyrimidin-4-yl)-(5-methyl-2H-pyrazol-3-yl)-amine] displayed an inhibition constant Ki on GSK-3β (AA 1-420) of 100 to 1000 nM.
Same read-out and setting: the same measure for `Cc1cc(Nc2nc(Nc3ccccc3)nc3c2CCCC3)n[nH]1` [IIc-45, (5-Methyl-2H-pyrazol-3-yl)-(2-phenylamino-5,6,7,8-tetrahydroquinazolinin-4-yl)-amine]: 100 to 1000 nM; for `Cc1cc(Nc2cc(C)[nH]n2)nc(C(C)(C)c2ccccc2)n1` [IIId-21]: below 100 nM.
Same read-out and setting: with `Cc1cc(Nc2cc(-c3ccccc3)nc(Oc3ccc4ccccc4c3)n2)n[nH]1` [IIIb-12] the figure was 100 to 1000 nM; with `Fc1cccc2c(Nc3nc(C4CC4c4ccccc4)nc4ccccc34)n[nH]c12` (stereo not drawn) [IId-17, (7-Fluoro-1H-indazol-3-yl)-[2-(2-phenyl-cyclopropyl)-quinazolin-4-yl]-amine], 100 to 1000 nM; with `Cc1cc(Nc2nc(Nc3ccccc3)nc(C)c2C)n[nH]1` [IIIc-20, (5,6-Dimethyl-2-phenylamino-pyrimidin-4-yl)-(5-methyl-2H-pyrazol-3-yl)-amine], 100 to 1000 nM.
Same read-out and setting: the same measure for `FC(F)(F)c1ccc(Nc2nc(Nc3n[nH]c4ccccc34)c3ccccc3n2)cc1` [IIc-72, (1H-Indazol-3-yl)-[2-(4-trifluoromethylphenylamino)-quinazolin-4-yl]-amine]: 100 to 1000 nM; for `Cc1cc(Nc2cc(C)[nH]n2)nc(Nc2ccc(Cl)cc2)n1` [IIIc-18, [2-(4-Chlorophenylamino)-6-methyl-pyrimidin-4-yl]-(5-methyl-2H-pyrazol-3-yl)-amine]: below 100 nM; for `CCC(=O)Nc1ccc(Sc2nc(COC)cc(Nc3cc(C)[nH]n3)n2)cc1` [IIIa-38, [6-Methoxymethyl-2-(4-propionylamino-phenyl-sulfanyl)-pyrimidin-4-yl]-(5-methyl-2H-pyrazol-3-yl)-amine]: 1000 to 7000 nM.
For the compound `Cc1cc(Nc2cc(C)[nH]n2)nc(Nc2ccccc2)n1` [IIIc-24, (6-Methyl-2-phenylamino-pyrimidin-4-yl)-(5-methyl-2H-pyrazol-3-yl)-amine], at GSK-3β (AA 1-420), the Ki is below 100 nM.
Still for that read-out and setting: with `Cc1cc(Nc2cc(-c3ccccc3)[nH]n2)nc(Nc2nc3ccccc3[nH]2)n1` [IIIc-16, [2-(Benzimidazol-2-ylamino)-6-methyl-pyrimidin-4-yl]-(5-phenyl-2H-pyrazol-3-yl)-amine] the figure was 1000 to 7000 nM.
The same measure, in the same setting: with `Cc1cc(Nc2cc(N3CCOCC3)nc(SCc3ccc(S(=O)(=O)N4CCOCC4)cc3)n2)n[nH]1` [IIIa-35, (5-Methyl-2H-pyrazol-3-yl)-{2-[4-(morpholinesulfonyl)-benzylsulfanyl]-6-morpholin-4-yl-pyrimidin-4-yl}-amine] the figure was 1000 to 7000 nM.
Still for that read-out and setting: with `Cc1cc(Nc2nc(Nc3ccc(Cl)cc3)nc3c2CCCC3)n[nH]1` [IIc-78, [2-(4-Chlorophenylamino)-5,6,7,8-tetrahydroquinazolinin-4-yl]-(5-methyl-2H-pyrazol-3-yl)-amine] the figure was below 100 nM; with `Fc1ccc2[nH]nc(Nc3nc(C4CC4c4ccccc4)nc4ccccc34)c2c1` (stereo not drawn) [IId-18, (5-Fluoro-1H-indazol-3-yl)-[2-(2-phenyl-cyclopropyl)-quinazolin-4-yl]-amine], 100 to 1000 nM; with `CC(=O)Nc1ccc(Sc2nc(Nc3cc(C)[nH]n3)cc(-c3ccccc3)n2)cc1` [IIIa-11, [2-(4-Acetamido-phenylsulfanyl)-6-phenyl-pyrimidin-4-yl]-(5-methyl-2H-pyrazol-3-yl)-amine], 100 to 1000 nM.
`CNC(=O)c1cc(Nc2cc(C)[nH]n2)nc(Sc2ccc(NC(C)=O)cc2)n1` [IIIa-49] displayed an inhibition constant (Ki) on GSK-3β (AA 1-420) of 1000 to 7000 nM.
